Data as given in ChEMBL document CHEMBL5375981, “Enhanced Tumor Targeting and Penetration of Proteolysis-Targeting Chimeras through iRGD Peptide Conjugation: A Strategy for Precise Protein Degradation in Breast Cancer” (J Med Chem, 2023).
pIC50: −log10 of the molar value. Active and inactive are the calls of the source.

What was measured:
[1] = Toxicity in BALB/C mouse xenografted with human MDA-MB-231 cells assessed as spleen damage at 5 to 8 uM, iv administered every other day for 21 days and measured 37 days post treatment by H and E staining based assay; format: organism-based; conditions: in vivo, 1392 h, dose 5-8 µM, time 58 day
MDA-MB-231 [2] = test: Antitumor activity against human MDA-MB-231 cells xenografted in BALB/C nude mouse assessed as disruption of tumor blood vessel wall at 5 uM, iv administered every other day and measured after 21 days by H and E staining based assay; format: functional, organism-based; conditions: time 21.0 day
MDA-MB-231 [3] = test: Antitumor activity against human MDA-MB-231 cells xenografted in BALB/C nude mouse assessed as tumor growth inhibition at 8 uM, iv administered every other day and measured after 21 days by vernier caliper method relative to control; format: functional; conditions: MDA-MB-231, 504 h, time 21 day, read-out: TGI
[4] = Toxicity in BALB/C mouse xenografted with human MDA-MB-231 cells assessed as weight loss at 5 to 8 uM, iv administered for 21 days and measured every 3 days; format: organism-based; conditions: in vivo, 504 h, dose 5-8 µM, time 21 day
[5] = molecular target: Bromodomain-containing protein 4 (Homo sapiens) (UniProt O60885); test: Induction of BRD4 degradation in human MDA-MB-231 cells harboring high integrin alphaVbeta3 expression at 1 uM incubated for 12 hrs by immunofluorescence staining based confocal microscopic analysis; format: cell-based
MDA-MB-231 [6] = test: Antitumor activity against human MDA-MB-231 cells xenografted in BALB/C nude mouse assessed as appearance of collapsed extravascular tumor tissue at 5 uM, iv administered every other day and measured after 21 days by H and E staining based assay; format: functional, organism-based; conditions: time 21.0 day
[7] = molecular target: Bromodomain-containing protein 4 (Homo sapiens) (UniProt O60885); test: Induction of BRD4 degradation in human L02 cells lacking integrin alphaVbeta3 expression at 300 nM incubated for 12 hrs by immunofluorescence staining based confocal microscopic analysis; format: cell-based
MDA-MB-231 [8] = test: Antitumor activity against human MDA-MB-231 cells xenografted in BALB/C nude mouse assessed as induction of apoptosis in tumor cells at 5 to 8 uM, iv administered every other day and measured after 21 days by immunohistochemistry; format: functional, organism-based; conditions: dose 5-8 µM, time 21.0 day
[9] = Drug release in PBS assessed as increase in (2S)-1-((R)-2-(tert-butyl)-17-((S)-4-(4-chlorophenyl)-2,3,9-trimethyl-6H-thieno[3,2-f][1,2,4]triazolo[4,3-a][1,4]diazepin-6-yl)-4,16-dioxo-6,9,12-trioxa-3,15-diazaheptadecanoyl)-4-hydroxy-N-((S)-1-(4-(4-methylthiazol-5-yl)phenyl)ethyl)pyrrolidine-2-carboxamide concentration at 50 uM in presence of GSH by LC-MS analysis; format: ADME; conditions: buffer, TDE = time-dependent effect
MCF7 = test: Antiproliferative activity against human MCF7 cells harboring low integrin alphaVbeta3 expression assessed as inhibition of cell growth incubated for 72 hrs by CCK-8 assay; format: functional, cell-based; conditions: MCF7, 72 h
Mus musculus = test: In vivo induction of BRD4 degradation in BALB/C mouse xenografted with human MDA-MB-231 cells assessed as reduction in BRD4 level by measuring reduction in green fluorescence at 5 to 8 uM, iv administered every other day and measured after 21 days by immunofluorescence analysis; format: functional, organism-based; conditions: dose 5-8 µM, time 21.0 day
[10] = Toxicity in BALB/C mouse xenografted with human MDA-MB-231 cells assessed as effect on spleen weight at 5 to 8 uM, iv administered every other day for 21 days; format: organism-based; conditions: in vivo, 504 h, dose 5-8 µM, time 21 day
[11] = Toxicity in BALB/C mouse xenografted with human MDA-MB-231 cells assessed as effect on lung weight at 5 to 8 uM, iv administered every other day for 21 days; format: organism-based; conditions: in vivo, 504 h, dose 5-8 µM, time 21 day
Homo sapiens [12] = species on record: Homo sapiens; test: Antitumor activity against patient-derived Breast cancer organoid assessed as increase in number of apoptotic cells by measuring reduction in green fluorescence at 0.5 to 1 uM incubated for approximately 3 to 5 days by acridine orange/ethidium bromide double staining ssay; format: functional, cell-based; conditions: dose 0.5-1 µM, time 3-5 day
[13] = molecular target: Bromodomain-containing protein 4 (Homo sapiens) (UniProt O60885); test: Induction of BRD4 degradation in human MDA-MB-231 cells harboring high integrin alphaVbeta3 expression assessed as reduction in BRD4 levels at 500 nM incubated for 12 hrs by immunofluorescence staining based confocal microscopic analysis; format: cell-based
Homo sapiens [14] = species on record: Homo sapiens; test: Antitumor activity against patient-derived Breast cancer organoid assessed as increase in number of apoptotic cells by measuring increase in red fluorescence at 0.5 to 1 uM incubated for approximately 3 to 5 days by acridine orange/ethidium bromide double staining ssay; format: functional, cell-based; conditions: dose 0.5-1 µM, time 3-5 day
MDA-MB-231 [15] = test: Antitumor activity against human MDA-MB-231 cells xenografted in BALB/C nude mouse assessed as inhibition of cell proliferation by measuring reduction in number of Ki67-stained cells at 5 to 8 uM, iv administered every other day and measured after 21 days by immunohistochemistry; format: functional, organism-based; conditions: dose 5-8 µM, time 21.0 day
[16] = molecular target: Bromodomain-containing protein 4 (Homo sapiens) (UniProt O60885); test: Induction of BRD4 degradation in human MDA-MB-231 cells harboring high integrin alphaVbeta3 expression at 300 nM incubated for 16 to 20 hrs by Western blot analysis; format: cell-based; conditions: time 16-20 hrs
Homo sapiens [17] = species on record: Homo sapiens; test: Antitumor activity against patient-derived Breast cancer organoid assessed as inhibition of cell growth at 0.5 to 1 uM incubated for 3 days by CCK-8 assay; format: functional, tissue-based; conditions: dose 0.5-1 µM, time 3.0 day
MDA-MB-231 [18] = test: Antimigratory activity against human MDA-MB-231 cells harboring high integrin alphaVbeta3 expression assessed as inhibition of cell migration incubated for 48 hrs by crystal violet staining based transwell assay; format: functional; conditions: dose 200-300 nM
[19] = Toxicity in BALB/C mouse xenografted with human MDA-MB-231 cells assessed as effect on liver weight at 5 to 8 uM, iv administered every other day for 21 days; format: organism-based; conditions: in vivo, 504 h, dose 5-8 µM, time 21 day
[20] = molecular target: Bromodomain-containing protein 4 (Homo sapiens) (UniProt O60885); test: Induction of BRD4 degradation in human MDA-MB-231 cells harboring high integrin alphaVbeta3 expression assessed as reduction in BRD4 levels at 500 nM pretreated with NRP-1 inhibitor EG00229 for 2 hrs followed by compound addition and measured after 12 hrs by immunofluorescence staining based confocal microscopic analysis; format: cell-based
[21] = Toxicity in BALB/C mouse xenografted with human MDA-MB-231 cells assessed as heart damage at 5 to 8 uM, iv administered every other day for 21 days and measured 37 days post treatment by H and E staining based assay; format: organism-based; conditions: in vivo, 1392 h, dose 5-8 µM, time 58 day
Homo sapiens [22] = species on record: Homo sapiens; test: Antitumor activity against patient-derived Breast cancer organoid assessed as reduction in number of proliferating cells by measuring reduction in red fluorescence at 0.5 uM incubated for approximately 3 days by Edu incorporation assay; format: functional, tissue-based; conditions: time 3.0 day
L02 = test: Antiproliferative activity against human L02 cells harboring minimal integrin alphaVbeta3 expression assessed as inhibition of cell growth incubated for 72 hrs by CCK-8 assay; format: functional, cell-based; conditions: L02, 72 h
[23] = Toxicity in BALB/C mouse xenografted with human MDA-MB-231 cells assessed as adverse reactions at 5 to 8 uM, iv administered for 21 days and measured every 3 days; format: organism-based; conditions: in vivo, 504 h, dose 5-8 µM, time 21 day
MDA-MB-231 [24] = test: Antitumor activity against human MDA-MB-231 cells xenografted in BALB/C nude mouse assessed as tumor growth inhibition at 5 uM, iv administered every other day and measured after 21 days by vernier caliper method relative to control; format: functional; conditions: MDA-MB-231, 504 h, time 21 day, read-out: TGI
[25] = Toxicity in BALB/C mouse xenografted with human MDA-MB-231 cells assessed as liver damage at 5 to 8 uM, iv administered every other day for 21 days and measured 37 days post treatment by H and E staining based assay; format: organism-based; conditions: in vivo, 1392 h, dose 5-8 µM, time 58 day

Cc1ncsc1-c1ccc([C@H](C)NC(=O)[C@@H]2C[C@@H](OC(=O)OCCSSCCOC(=O)CCC(=O)NCCCC[C@@H]3NC(=O)[C@H](CC(=O)O)NC(=O)CNC(=O)[C@H](CCCNC(=N)N)NC(=O)[C@@H](N)CSSC[C@@H](C(=O)O)NC(=O)[C@H](CC(=O)O)NC(=O)[C@@H]4CCCN4C(=O)CNC3=O)CN2C(=O)[C@@H](NC(=O)COCCOCCOCCNC(=O)C[C@@H]2N=C(c3ccc(Cl)cc3)c3c(sc(C)c3C)-n3c(C)nnc32)C(C)(C)C)cc1
inactive: Activity [7] | Activity [20]
6.59: pIC50 (MCF7)
62.3%: inhibition in vivo at 5 µM (MDA-MB-231 [24])
Non-Toxic: Activity [1] | Activity [4] | Activity [10] | Activity [11] | Activity [19] | Activity [21] | Activity [23] | Activity [25]
81.5%: inhibition in vivo at 8 µM (MDA-MB-231 [3])
Tde: Drug metabolism [9]
active: Activity (MDA-MB-231 [2]) | Activity [5] | Activity (MDA-MB-231 [6]) | Activity (MDA-MB-231 [8]) | Activity (Mus musculus) | Activity (Homo sapiens [12]) | Activity [13] | Activity (Homo sapiens [14]) | Activity (MDA-MB-231 [15]) | Activity [16] | Activity (Homo sapiens [17]) | Activity (MDA-MB-231 [18]) Dose-Dependent Effect | Activity (Homo sapiens [22])
5.82: pIC50 (L02)
